# Laboratory results as given in ChEMBL document CHEMBL1201862, “PubChem BioAssay data set” (2004).
#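 Results reflect a 48-hour exposure of cells in 96-well plates to compound at five concentrations. At the GI50, growth is halved.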 Calls of active or inactive are those of the source. Cut-off read from the data, not from the text of the source: active = GI50 up to about 1.1 µM and inactive = higher.
# Assays:
# Experiment in all cases: NCI anticancer screen, dose series, 48 h
# DU-145 = system: DU-145
# NCI-H460 = system: NCI-H460
# SK-OV-3 = system: SK-OV-3
# BT-549 = system: BT-549
# OVCAR-8 = system: OVCAR-8
# NCI/ADR-RES = system: NCI/ADR-RES
# SNB-75 = system: SNB-75
# A498 = system: A498
# HCT-15 = system: HCT-15
# SK-MEL-5 = system: SK-MEL-5
# UO-31 = system: UO-31
# HOP-62 = system: HOP-62
# 786-0 = system: 786-0
# MCF7 = system: MCF7
# COLO 205 = system: COLO 205
# HCT-116 = system: HCT-116
# NCI-H522 = system: NCI-H522
# SF-295 = system: SF-295
# NCI-H226 = system: NCI-H226
# EKVX = system: EKVX
# PC-3 = system: PC-3
# M14 = system: M14
# UACC-257 = system: UACC-257
# A549 = system: A549
# ACHN = system: ACHN
# SNB-19 = system: SNB-19
# RXF 393 = system: RXF 393
# TK-10 = system: TK-10
# UACC-62 = system: UACC-62
# OVCAR-5 = system: OVCAR-5
# NCI-H23 = system: NCI-H23
# LOX IMVI = system: LOX IMVI
# SW-620 = system: SW-620
# SF-268 = system: SF-268
# K562 = system: K562
# Malme-3M = system: Malme-3M
# MDA-N = system: MDA-N
# MDA-MB-231 = system: MDA-MB-231
# HCC 2998 = system: HCC 2998
# KM12 = system: KM12
# SK-MEL-28 = system: SK-MEL-28
# SK-MEL-2 = system: SK-MEL-2
# MOLT-4 = system: MOLT-4
# OVCAR-4 = system: OVCAR-4
# OVCAR-3 = system: OVCAR-3
# SR = system: SR
# Hs-578T = system: Hs-578T
# U-251 = system: U-251
# SN12C = system: SN12C
# RPMI-8226 = system: RPMI-8226
# MDA-MB-435 = system: MDA-MB-435
# T47D = system: T47D
# IGROV-1 = system: IGROV-1
# SF-539 = system: SF-539
# CCRF-CEM = system: CCRF-CEM
# CAKI-1 = system: CAKI-1
# HT-29 = system: HT-29
smiles,measurement,setting,value
CCN1C/C(=C\c2ccc(Cl)cc2)C2=NN(c3ccccc3)C(c3ccc(Cl)cc3)C2C1 (stereo unspecified),GI50,DU-145,> 100 µM (inactive)
same,GI50,NCI-H460,> 100 µM (inactive)
same,GI50,SK-OV-3,> 100 µM (inactive)
same,GI50,BT-549,> 100 µM (inactive)
same,GI50,OVCAR-8,> 100 µM (inactive)
same,GI50,NCI/ADR-RES,> 100 µM (inactive)
same,GI50,SNB-75,> 100 µM (inactive)
same,GI50,A498,> 100 µM (inactive)
same,GI50,HCT-15,> 100 µM
same,GI50,SK-MEL-5,> 100 µM (inactive)
same,GI50,UO-31,> 100 µM (inactive)
same,GI50,HOP-62,> 100 µM (inactive)
same,GI50,786-0,> 100 µM (inactive)
same,GI50,MCF7,53.1 µM (inactive)
same,GI50,COLO 205,> 100 µM (inactive)
same,GI50,HCT-116,> 100 µM (inactive)
same,GI50,NCI-H522,> 100 µM (inactive)
same,GI50,SF-295,> 100 µM (inactive)
same,GI50,NCI-H226,> 100 µM (inactive)
same,GI50,EKVX,> 100 µM (inactive)
same,GI50,PC-3,> 100 µM (inactive)
same,GI50,M14,> 100 µM (inactive)
same,GI50,UACC-257,> 100 µM (inactive)
same,GI50,A549,> 100 µM (inactive)
same,GI50,ACHN,> 100 µM (inactive)
same,GI50,SNB-19,> 100 µM (inactive)
same,GI50,RXF 393,> 100 µM (inactive)
same,GI50,TK-10,> 100 µM (inactive)
same,GI50,UACC-62,> 100 µM (inactive)
same,GI50,OVCAR-5,> 100 µM (inactive)
same,GI50,NCI-H23,> 100 µM (inactive)
same,GI50,LOX IMVI,> 100 µM (inactive)
O=c1c2cn[nH]c2nc2scc(-c3ccc(Cl)cc3)n12,GI50,SW-620,> 100 µM (inactive)
same,GI50,NCI-H460,> 100 µM (inactive)
same,GI50,SF-268,> 100 µM (inactive)
same,GI50,SK-OV-3,> 100 µM (inactive)
same,GI50,K562,> 100 µM (inactive)
same,GI50,OVCAR-8,> 100 µM (inactive)
same,GI50,NCI/ADR-RES,> 100 µM (inactive)
same,GI50,SNB-75,16.9 µM (inactive)
same,GI50,Malme-3M,> 100 µM (inactive)
same,GI50,HCT-15,> 100 µM
same,GI50,MDA-N,> 100 µM (inactive)
same,GI50,MDA-MB-231,> 100 µM (inactive)
same,GI50,SK-MEL-5,> 100 µM (inactive)
same,GI50,UO-31,> 100 µM (inactive)
same,GI50,HCC 2998,> 100 µM (inactive)
same,GI50,HOP-62,> 100 µM (inactive)
same,GI50,786-0,> 100 µM (inactive)
same,GI50,KM12,> 100 µM (inactive)
same,GI50,SK-MEL-28,> 100 µM (inactive)
same,GI50,MCF7,> 100 µM (inactive)
same,GI50,SK-MEL-2,53.6 µM (inactive)
same,GI50,COLO 205,> 100 µM (inactive)
same,GI50,HCT-116,> 100 µM (inactive)
same,GI50,NCI-H522,> 100 µM (inactive)
same,GI50,MOLT-4,> 100 µM (inactive)
same,GI50,SF-295,> 100 µM (inactive)
same,GI50,OVCAR-4,> 100 µM (inactive)
same,GI50,NCI-H226,> 100 µM (inactive)
same,GI50,EKVX,> 100 µM (inactive)
same,GI50,OVCAR-3,> 100 µM (inactive)
same,GI50,PC-3,> 100 µM (inactive)
same,GI50,M14,> 100 µM (inactive)
same,GI50,SR,> 100 µM (inactive)
same,GI50,Hs-578T,41.7 µM (inactive)
same,GI50,UACC-257,> 100 µM (inactive)
same,GI50,U-251,> 100 µM (inactive)
same,GI50,A549,> 100 µM (inactive)
same,GI50,SN12C,> 100 µM (inactive)
same,GI50,RPMI-8226,> 100 µM (inactive)
same,GI50,MDA-MB-435,> 100 µM (inactive)
same,GI50,T47D,> 100 µM (inactive)
same,GI50,ACHN,> 100 µM (inactive)
same,GI50,IGROV-1,> 100 µM (inactive)
same,GI50,SNB-19,> 100 µM (inactive)
same,GI50,SF-539,> 100 µM (inactive)
same,GI50,RXF 393,> 100 µM (inactive)
same,GI50,TK-10,> 100 µM (inactive)
same,GI50,UACC-62,> 100 µM (inactive)
same,GI50,OVCAR-5,> 100 µM (inactive)
same,GI50,CCRF-CEM,> 100 µM (inactive)
same,GI50,CAKI-1,> 100 µM (inactive)
same,GI50,NCI-H23,> 100 µM (inactive)
same,GI50,HT-29,> 100 µM (inactive)
same,GI50,LOX IMVI,> 100 µM (inactive)
